Experimental data published in PubChem BioAssay (NCI).
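Grown in 96-well plates, cells were treated for 48 hours with each compound at five concentrations. Insufficient inhibition: endpoint recorded as highest concentration tested. At the GI50, growth is halved. TGI: concentration producing complete growth inhibition.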

Legend:
Test in all cases: NCI tumour cell line growth inhibition, 48 h
HS 578T breast = tested on: HS 578T breast
HCT-15 colon = tested on: HCT-15 colon
SF-268 CNS = tested on: SF-268 CNS
U251 CNS = tested on: U251 CNS
UACC-62 melanoma = tested on: UACC-62 melanoma
SR leukemia = tested on: SR leukemia
M14 melanoma = tested on: M14 melanoma
SNB-75 CNS = tested on: SNB-75 CNS
HOP-62 NSCLC = tested on: HOP-62 NSCLC
RXF 393 renal = tested on: RXF 393 renal

Row | Structure (SMILES) | TGI (HS 578T breast) [µM] | TGI (HCT-15 colon) [µM] | TGI (SF-268 CNS) [µM] | TGI (U251 CNS) [µM] | TGI (UACC-62 melanoma) [µM] | TGI (SR leukemia) [µM] | TGI (M14 melanoma) [µM] | TGI (SNB-75 CNS) [µM] | TGI (HOP-62 NSCLC) [µM] | TGI (RXF 393 renal) [µM] | GI50 (HS 578T breast) [µM] | GI50 (HCT-15 colon) [µM] | GI50 (SF-268 CNS) [µM] | GI50 (U251 CNS) [µM] | GI50 (UACC-62 melanoma) [µM] | GI50 (SR leukemia) [µM] | GI50 (M14 melanoma) [µM] | GI50 (SNB-75 CNS) [µM] | GI50 (HOP-62 NSCLC) [µM] | GI50 (RXF 393 renal) [µM]
1 | O=S(=O)(c1ccccc1)C1CN(Cc2ccccc2)CCN(Cc2ccccc2)C1 | > 100 | > 100 | 97.7 | > 100 | > 68.1 | > 100 | > 100 | > 100 | > 100 | 43.3 |  |  |  |  |  |  |  |  |  | 
2 | COc1ccc2c(c1)CC[C@@H]1[C@@H]2CC[C@]2(C)c3c(cc(C(=O)c4ccccc4)c4sccc34)C[C@@H]12 | > 100 | > 100 | > 100 | > 100 | > 100 | > 100 | > 100 | > 100 | > 100 | > 100 | > 100 | > 100 | > 100 | > 100 | > 100 | > 100 | 75.4 | 22.8 | > 100 | > 100
3 | CCN(CC)CCCC(C)Nc1ccnc2cc(Cl)c(SCc3ccccc3)cc12 (stereo not given) | 5.73 | 1.63 | 3.65 | 2.39 | 0.585 | 0.539 | 0.351 | 3.32 | 3.01 | 2.78 | 1.97 | 0.417 | 1.59 | 1.08 | 0.214 | 0.173 | 0.189 | 1.66 | 1.37 | 1.42
4 | Cc1ccc(S(=O)(=O)C2=C3C(=C(c4ccccc4)c4ccccc43)CN(S(=O)(=O)c3ccc(C)cc3)C2)cc1 | 39.9 | 16.3 | 12.9 | 12.7 | 24.9 | 25.7 | 34.4 | 31.6 | 51.9 | 16 | 2.57 | 2.32 | 2.6 | 3.01 | 4.85 | 1.55 | 5.63 | 2.92 | 15.4 | 4.01
5 | COc1ccc(OC)c2c3c(ncc12)-c1cc2c(cc1C3)OCO2 | 62.1 | > 100 |  | 3.31 | > 100 | > 100 | > 100 | > 100 | 0.0603 | > 100 | 7.01 | 3.87 |  | 0.209 | > 100 | 4.22 | 0.316 | > 100 |  | > 100
6 | Clc1cccc(Cc2cn3cc(-c4ccccc4)nc3s2)c1 | > 100 |  | > 100 | 81.2 | 1.97 | > 100 | > 100 | 76.7 | 40.5 | 40.4 | 13.4 |  | 12.8 | 9.18 | 0.323 | 36.5 | 0.84 | 21.2 | 9.1 | 15.1
